Tests used:
Type in all cases: in vivo, C57BL6 mice
[1] = tested on: melanoma B16ova tumor cells; assay: Tumor growth after melanoma B16ova challenge, immunization with tumor lysate (Example 7); details: B16ova day 0; immunization day 7 with 1×10^6 CE tumor lysate ± 200 μg IRM1 ± 100 μg FGK4.5; measured days 14 and 20
Method: Mice were challenged with tumor on day 0 as in example 6. 5 mice each were immunized on days 7 with 1×10^6 cell equivalents (CE) (A) tumor lysate, (B) 1×10^6 CE tumor lysate+200 μg IRM1, (C) 1×10^6 CE tumor lysate+100 μg FGK4.5 anti-CD40 antibody, or (D)1×10^6 CE tumor lysate+200 μg IRM1+100 μg FGK4.5 anti-CD40 antibody. Tumor sizes were measured on the mice by caliper on days 14 and 20.

CD8^+ memory T cells = assay: Generation and re-activation of CD8+ memory T cells (Example 4); details: day 0: 100 μg ovalbumin peptide + 200 μg IRM1 + 100 μg 1C10 i.v.; challenge day 28 with peptide or peptide + 200 μg IRM1; analysis day 33
Method: Mice were immunized intravenously on day 0 with 100 μg ovalbumin peptide+200 μg IRM 1+100 μg of 1C10 anti-CD40 antibody. On day 28, the mice were either (A) left unchallenged, (B) challenged intravenously with 100 μg ovalbumin peptide, or (C) challenged intravenously with 100 μg ovalbumin peptide+200 μg IRM1. On day 33, the mice were sacrificed, the spleens removed and spleen cells homogenized. The homogenized cells were stained and analyzed as described in Example 1.

[2] = tested on: melanoma B16ova tumor cells; assay: Tumor growth after melanoma B16ova challenge, immunization with ovalbumin peptide (Example 6); details: B16ova intradermal day 0; immunization day 7 with 100 μg ovalbumin peptide + 200 μg IRM + 100 μg 1C10; measured day 21
Method: Mice were challenged intradermally on day 0 with 1×10^5 melanoma B16ova tumor cells in PBS (Kedl et al. PNAS 98(19):10811-10816). On day 7, the mice were immunized with either (A) 100 μg ovalbumin peptide, (B) 100 μg ovalbumin peptide+200 μg IRM1, or (C) 100 μg ovalbumin peptide+200 μg IRM1+100 μg 1C10 anti-CD40 antibody. On day 21, the mice were sacrificed and the tumors were measured in two dimensions by caliper.
Mice also were challenged as described above, and immunized as described above except that IRM2 was substituted for IRM1.

[3] = tested on: TRP2-ΔV-specific CD8^+ T cells; assay: Expansion of TRP2-ΔV-specific CD8+ T cells after i.v. immunization (Example 3); details: 100 μg FGK4.5 + 200 μg IRM1 + 100 μg TRP2-ΔV peptide i.v.; spleen, day 5
Method: Mice were immunized intravenously with 100 μg FGK4.5 anti-CD40 antibody+200 μg IRM1 and either (A) no peptide, (B) 100 μg ovalbumin peptide, or (C) 100 μg TRP2-ΔV peptide. At five days after the immunizations, the spleens were removed from the mice and homogenized. The homogenized cell suspension was stained as in Example 1, except that the MHC tetramer reagent was prepared for detecting TRP2-ΔV-specific T cells. When subjected to flow cytometry, TRP2-ΔV-specific CD8^+ T cells are shown in the upper right quadrant of the dot plots shown in FIG. 3. The numbers in the upper right quadrant indicate the percentage of cells in that quadrant.

[4] = tested on: ovalbumin-specific CD8^+ T cells; assay: Expansion of ovalbumin-specific CD8+ T cells after i.v. immunization with ovalbumin peptide (Example 1, MHC tetramer flow cytometry of spleen cells); details: 100 μg ovalbumin peptide + 100 μg 1C10 anti-CD40 antibody + 200 μg IRM1 i.v., day 5, combination vs either agonist alone
Method: Unless otherwise indicated, mice used in the following examples are C57BL6 mice, available from Charles River Laboratories, Inc., Wilmington, Mass.
MHC tetrameric reagent was prepared using a eukaryotic (Baculovirus) expression system as follows/described in Kedl et al., JEM 192(8):1105-1113 (2000).
2-5 Mice were immunized intravenously with (A) 100 μg ovalbumin peptide, (B) 100 μg ovalbumin peptide+100 μg anti-CD40 antibody (1C10), (C) 100 μg ovalbumin peptide+200 μg IRM1, or (D) 100 μg ovalbumin peptide+100 μg 1C10 anti-CD40 antibody+200 μg IRM1. At five days after the immunizations, the spleens were removed from the mice and homogenized. The homogenized cell suspension was stained with a major histocompatibility complex (MHC) tetrameric reagent for detecting ovalbumin-specific T cells (Kedl et al., JEM 192(8):1105-1113 (2000)), a CD8 stain (BD Biosciences Pharmingen, San Diego, Calif.), and a CD44 stain (BD Biosciences Pharmingen, San Diego, Calif.). When subjected to flow cytometry, ovalbumin-specific CD8^+ T cells are shown in the upper right quadrant of the dot plots shown in FIG. 1.

CD8^+ T cells [5] = assay: CD8+ T cell expansion with IRM1 and different TNF/R agonists (Example 9); details: 1 mg ovalbumin + 200 μg IRM1 + 200 μg TNF/R agonist; spleen, day 6
Method: Mice were immunized on day 0 with 1 mg ovalbumin, 200 μg IRM1, and either 200 μg CD40 ligand (FGK4.5), 200 μg 4-1BB ligand (anti-mouse 4-1BB antibody, clone 17B3, eBioscience, San Diego, Calif.), or no TNF/R agonist (control).

[6] = tested on: ovalbumin-specific CD8^+ T cells; assay: Expansion kinetics of ovalbumin-specific CD8+ T cells after i.p. immunization with whole ovalbumin (Example 2); details: 5 mg ovalbumin + 50 μg FGK4.5 anti-CD40 antibody + 220 μg IRM1 i.p.; spleen, days 4-12
Method: Mice were intraperitoneally injected with 5 mg ovalbumin (Sigma Chemical Co., St. Louis, Mo.), 50 μg FGK4.5 anti-CD40 antibody, and 220 μg IRM1. Mice were sacrificed on each of days four, five, six, nine, and twelve. The spleens were removed from the sacrificed mice and homogenized. The homogenized cell suspensions were stained and analyzed as described in Example 1. When subjected to flow cytometry, ovalbumin-specific CD8^+ T cells (top) and ovalbumin-specific CD8^+/CD44+ T cells (bottom) were identified and are shown in the upper right quadrant of each dot plot. The numbers in the upper right quadrant indicate the percentage of cells in that quadrant.

CD8^+ T cells [7] = assay: CD8+ T cell expansion with CD40 agonist and different IRM compounds (Example 8); details: 500 μg ovalbumin + 50 μg FGK4.5 + IRM (500 μg IRM3, 200 μg IRM4, 800 μg IRM5, 800 μg IRM2) i.p.; spleen, day 6; n=3
Method: Mice were intraperitoneally injected on day 0 with 500 μg ovalbumin, 50 μg CD40 agonist (FGK4.5), and either 500 μg IRM3, 200 μg IRM4, 800 μg IRM5, 800 μg IRM2, or no IRM (control).

Cc1nc2c(N)nc3ccccc3c2n1CC(C)(C)O [IRM1, 4-amino-α,α,2-trimethyl-1H-imidazo[4,5-c]quinolin-1-ethanol]
Tumor growth (tumor size by caliper) [1]: slower tumor growth than immunization with IRM alone or CD40 agonist alone | Generation and re-activation of CD8^+ memory T cells (CD8^+ memory T cells): generates a pool of long-lived CD8^+ memory T cells that can be reactivated by treatment with IRM and the antigen | Tumor growth (tumor size by caliper) [2]: slower tumor growth than immunization with IRM alone | Expansion of antigen-specific (TRP2-ΔV) CD8^+ T cells [3]: synergistic expansion of antigen-specific CD8^+ T cells | Expansion of the ovalbumin-specific CD8^+ T cell population [4]: greater than the expansion of the ovalbumin-specific CD8^+ T cell populations after stimulation with either the anti-CD40 antibody or IRM alone | Expansion of CD8^+ T cells (CD8^+ T cells [5]): Synergistic expansion of CD8^+ T cells | CD8^+ T cell expansion (ovalbumin-specific) [6]: synergistic effect on CD8^+ T cell expansion

COCCc1nc2c(N)nc3ccccc3c2n1CCOCCN(C)C(=O)N1CCOCC1 [IRM2, N-(2-{2-[4-amino-2-(2-methoxyethyl)-1H-imidazo[4,5-c]quinolin-1-yl]ethoxy}ethyl)-N-methylmorpholine-4-carboxamide]
Expansion of CD8^+ T cells (CD8^+ T cells [7]): Synergistic expansion of CD8^+ T cells

CCOCc1nc2c(N)nc3ccccc3c2n1CC(C)(C)N [IRM3, 1-(2-amino-2-methylpropyl)-2-(ethoxymethyl)-1H-imidazo[4,5-c]quinolin-4-amine]
Expansion of CD8^+ T cells (CD8^+ T cells [7]): Synergistic expansion of CD8^+ T cells

CCc1nc2c(N)nc3ccccc3c2n1CCCCNS(C)(=O)=O [IRM4, N-[4-(4-amino-2-ethyl-1H-imidazo[4,5-c]quinolin-1-yl)butyl]-methanesulfonamide]
Expansion of CD8^+ T cells (CD8^+ T cells [7]): Synergistic expansion of CD8^+ T cells

CCCc1nc2c(N)nc3ccccc3c2n1CCCCNS(C)(=O)=O [IRM5, N-[4-(4-amino-2-propyl-1H-imidazo[4,5-c]quinolin-1-yl)butyl]-methanesulfonamide]
Expansion of CD8^+ T cells (CD8^+ T cells [7]): Synergistic expansion of CD8^+ T cells
